Assay results published in US12012392B2, “Sulfonamide carboxamide compounds” (Inflazome Limited, priority 2017, dated 2024).
pIC50: −log10 of the molar value. Read-outs that look alike come from different tables or passages of the source.

Experiments:
NLRP3 inflammasome = details: limited potency, nonspecific; cited from earlier work
NLRP3 [1] = biological target: T1, NLRP3 (Homo sapiens, UniProt Q96P20); test: THP-1 cells pyroptosis assay; type: cell-based; design: Seed THP-1 cells (25,000 cells/well) containing 1.0 μg/ml LPS; host or cells: THP-1 cells, LPS-primed, nigericin-stimulated; details: LPS 1 μg/ml, nigericin 5 μM, resazurin read-out
Summary of the method: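 THP-1 cells (25,000/well) primed with 1 μg/ml LPS in serum-free RPMI, given compound (8-point half-log, 10 μM top, 0.1% DMSO) for 3 hrs, then nigericin 5 μM for 1 hr at 37° C. Viability of remaining cells read by resazurin (100 μM, 1–2 hrs) fluorescence; IC50 from 4-parameter fit.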

NLRP3 [2] = biological target: T1, NLRP3; test: Human whole blood IL1β release assay; type: cell-based; design: Plate out 80 μl of whole blood containing 1 μg/ml of LPS; from tissue; host or cells: human whole blood from healthy donors, LPS-primed, nigericin-stimulated; details: LPS 1 μg/ml, nigericin 10 μM, IL-1β AlphaLisa, read-out: HWB IC50
Summary of the method: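 Donor Li-heparin whole blood with 1 μg/ml LPS preincubated 3 h at 37 °C with compound (8-point half-log series, 10 μM top; 0.1% DMSO). Nigericin (10 μM final) added for 1 h, then supernatant IL-1β measured by AlphaLISA. IC50 from 4-parameter variable-slope fit.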

[3] = PK protocol (intravenous and oral administration); type: in vivo, male Sprague Dawley rats; details: male, Sprague Dawley, plasma, rat, intravenous; for Vd: read-out: Vdss
Description: Pharmacokinetic parameters were determined in male Sprague Dawley rats (Charles River, UK, 250-350 g; or Vital River Laboratory Animal Technology Co Ltd, Beijing, China, 7-9 weeks old). Animals were individually housed during the study and maintained under a 12 h light/dark cycle. Animals had free access to food and water except that some orally dosed animals were food deprived overnight prior to the study. For intravenous administration, compounds were formulated as a solution in water or DMSO:PBS [10:90] in 2 mL/kg dosing volume and administered via tail vein. For oral administration, compounds were formulated as a solution in water or DMSO:water [10:90] in 5 mL/kg dosing volume and administered orally.
Serial blood samples (about 120-300 μL) were taken from each animal at each of 8 time-points post dose (0.083, 0.25, 0.5, 1, 2, 4, 8 and 24 h) or at each of 12 time-points post dose (0.03, 0.1, 0.17, 0.25, 0.5, 1, 2, 4, 6, 8, 12 and 24 h) or pre-dose and at each of 9 time-points post dose (0.25, 0.5, 1, 2, 4, 6, 8, 12 and 24 h). Samples were held on ice for no longer than 30 minutes before centrifugation (10,000 rpm (8,385 g) for 3 minutes; or 5,696 rpm (3,000 g) for 15 minutes) for plasma generation. Plasma was frozen on dry ice prior to bioanalysis. PK parameters were generated from LC-MS/MS data using Dotmatics or Phoenix WinNonlin 6.3 software.

T1 sequence (Q96P20 whole entry): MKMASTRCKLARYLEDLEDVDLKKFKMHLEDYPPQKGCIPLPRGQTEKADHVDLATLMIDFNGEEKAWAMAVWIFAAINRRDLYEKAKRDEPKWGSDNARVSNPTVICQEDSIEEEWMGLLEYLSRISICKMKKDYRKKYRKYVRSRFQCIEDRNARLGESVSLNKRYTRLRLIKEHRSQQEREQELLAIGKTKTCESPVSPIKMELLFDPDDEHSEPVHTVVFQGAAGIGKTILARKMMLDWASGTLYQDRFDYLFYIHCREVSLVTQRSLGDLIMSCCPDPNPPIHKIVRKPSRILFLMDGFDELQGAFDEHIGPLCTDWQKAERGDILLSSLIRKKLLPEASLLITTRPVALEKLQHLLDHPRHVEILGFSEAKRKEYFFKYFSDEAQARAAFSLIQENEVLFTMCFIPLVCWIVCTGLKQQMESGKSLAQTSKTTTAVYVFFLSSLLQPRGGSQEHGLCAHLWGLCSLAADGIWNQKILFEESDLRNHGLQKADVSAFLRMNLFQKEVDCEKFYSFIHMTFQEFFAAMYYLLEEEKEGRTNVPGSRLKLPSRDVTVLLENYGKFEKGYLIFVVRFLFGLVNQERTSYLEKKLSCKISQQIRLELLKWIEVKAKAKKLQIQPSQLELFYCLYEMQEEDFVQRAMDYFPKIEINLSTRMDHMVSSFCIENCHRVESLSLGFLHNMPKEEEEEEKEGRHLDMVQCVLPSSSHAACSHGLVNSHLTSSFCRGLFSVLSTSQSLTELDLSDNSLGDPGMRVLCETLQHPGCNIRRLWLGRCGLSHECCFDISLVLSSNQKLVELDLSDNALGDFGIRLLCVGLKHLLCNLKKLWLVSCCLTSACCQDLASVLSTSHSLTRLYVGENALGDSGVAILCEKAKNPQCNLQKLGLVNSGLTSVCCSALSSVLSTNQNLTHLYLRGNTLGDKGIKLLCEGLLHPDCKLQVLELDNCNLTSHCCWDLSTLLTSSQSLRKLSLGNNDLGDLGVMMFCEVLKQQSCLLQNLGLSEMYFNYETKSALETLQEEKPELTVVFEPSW

Compound | pIC50 (NLRP3 [1]) | pIC50 (NLRP3 [2]) | AUC ([3]; dose 1 mg/kg) [µg·h/mL] | clearance ([3]; dose 1 mg/kg) [L/h/kg] | half-life ([3]; dose 1 mg/kg) [h] | Vd ([3]; dose 1 mg/kg) [L/kg] | AUC ([3]; dose 2.99 mg/kg) [µg·h/mL] | clearance ([3]; dose 2.99 mg/kg) [L/h/kg] | half-life ([3]; dose 2.99 mg/kg) [h] | Vd ([3]; dose 2.99 mg/kg) [L/kg] | NLRP3 inhibition (potency in words) (NLRP3 inflammasome)
C[S+](C)[O-] [dimethyl sulfoxide (DMSO), dimethyl sulfoxide] | – | – | – | – | – | – | – | – | – | – | weak
O=[N+]([O-])C=Cc1ccc2c(c1)OCO2 [3,4-methylenedioxy-β-nitrostyrene] | – | – | – | – | – | – | – | – | – | – | weak
COCCn1ccc(S(=O)(=O)NC(=O)Nc2c3c(cc4c2CCC4)CCC3)n1 [Example 2, N-((1,2,3,5,6,7-Hexahydro-s-indacen-4-yl)carbamoyl)-1-(2-methoxyethyl)-1H-pyrazole-3-sulfonamide] | 6.19 to 6.80 | 5.80 to 6.10 | 1.03 | 0.972 | 0.3 | 0.3 | – | – | – | – | –

Continued, in another order:

pIC50 (NLRP3 [1]) | pIC50 (NLRP3 [2]) | AUC ([3]; dose 1 mg/kg) [µg·h/mL] | clearance ([3]; dose 1 mg/kg) [L/h/kg] | half-life ([3]; dose 1 mg/kg) [h] | Vd ([3]; dose 1 mg/kg) [L/kg] | AUC ([3]; dose 2.99 mg/kg) [µg·h/mL] | clearance ([3]; dose 2.99 mg/kg) [L/h/kg] | half-life ([3]; dose 2.99 mg/kg) [h] | Vd ([3]; dose 2.99 mg/kg) [L/kg] | Compound | NLRP3 inhibition (potency in words) (NLRP3 inflammasome)
> 7.40 | > 6.40 | – | – | – | – | 2.32 | 1.3 | 0.8 | 1.11 | CCn1nc(S(=O)(=O)NC(=O)Nc2c3c(cc4c2CCC4)CCC3)cc1C1(OC)COC1 [Example 45, 1-Ethyl-N-((1,2,3,5,6,7-hexahydro-s-indacen-4-yl)carbamoyl)-5-(3-methoxyoxetan-3-yl)-1H-pyrazole-3-sulfonamide] | –
6.19 to 6.80 | > 6.40 | 38.7 | 0.024 | 3.6 | 0.09 | – | – | – | – | C[C@H](CO)n1ccc(S(=O)(=O)NC(=O)Nc2c3c(cc4c2CCC4)CCC3)n1 [Example 13, (R)—N-((1,2,3,5,6,7-Hexahydro-s-indacen-4-yl)carbamoyl)-1-(1-hydroxypropan-2-yl)-1H-pyrazole-3-sulfonamide] | –
6.80 to 7.40 | > 6.40 | 7.38 | 0.138 | 2.9 | 0.36 | – | – | – | – | C[C@H](O)Cn1ccc(S(=O)(=O)NC(=O)Nc2c3c(cc4c2CCC4)CCC3)n1 [Example 11, (S)—N-((1,2,3,5,6,7-Hexahydro-s-indacen-4-yl)carbamoyl)-1-(2-hydroxypropyl)-1H-pyrazole-3-sulfonamide] | –
